Results reported in PMC9402538, “Rational design of a sensitivity-enhanced tracer for discovering efficient APC–Asef inhibitors” (Nature Communications, 2022).
Like-named read-outs stand apart in the source and are kept apart here. Where a SMILES comes first, the peptide text is derived from it. The star is where a group is joined. Benzoyl(4-OMe) = COc1ccc(C(=O)*)cc1

Target: T1, APC (303–739) (Homo sapiens, UniProt P25054)
T1 sequence (P25054 303-739): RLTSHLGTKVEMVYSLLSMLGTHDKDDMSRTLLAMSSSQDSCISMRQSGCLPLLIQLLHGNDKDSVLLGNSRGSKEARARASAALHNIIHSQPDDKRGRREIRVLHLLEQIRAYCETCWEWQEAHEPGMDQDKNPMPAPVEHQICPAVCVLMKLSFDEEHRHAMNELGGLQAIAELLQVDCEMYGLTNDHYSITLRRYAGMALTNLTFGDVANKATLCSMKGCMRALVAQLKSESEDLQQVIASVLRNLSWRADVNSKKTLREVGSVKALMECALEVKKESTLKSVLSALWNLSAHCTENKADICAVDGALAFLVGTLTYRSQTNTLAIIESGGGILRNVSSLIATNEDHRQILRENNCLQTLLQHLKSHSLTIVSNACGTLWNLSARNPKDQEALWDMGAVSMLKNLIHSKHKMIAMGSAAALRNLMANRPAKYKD
Experiment: FP competitive assay using tracer 7
Format: binding
Details: for IC50: Table 3 source data
In short: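 Fluorescence polarization competition: APC (303–739) in 50 mM HEPES pH 7.5, 300 mM NaCl, 1 mM EDTA, 1 mM DTT, preincubated 1 h at room temperature with serially diluted peptides. FITC tracer 7 then added (400 nM stock) and FP read after 1.5 h at room temperature; IC50 by nonlinear regression, triplicates.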

Compound: COc1ccc(C(=O)N[C@@H](C)C(=O)NCC(=O)N[C@@H](CCC(=O)O)C(=O)N[C@@H](CO)C(=O)N[C@@H](CC(C)C)C(=O)N[C@@H](Cc2ccc(O)cc2)C(=O)N[C@@H](CCC(=O)O)C(N)=O)cc1 [MAI-516] ({Benzoyl(4-OMe)}-AGESLYE-NH2)
- inhibition at 50 µM (Conc. 50 μM, individual repeats, Fig3b, read-out: %inhibition): 99%
- mean (FP signal, FigS5) (Repeat 1, Conc. 0.0024 μM): 278.3
- mean (FP signal, FigS5) (Repeat 1, Conc. 0.0049 μM): 270.3
- mean (FP signal, FigS5) (Repeat 1, Conc. 0.0098 μM): 252
- mean (FP signal, FigS5) (Repeat 1, Conc. 0.0195 μM): 216.7
- mean (FP signal, FigS5) (Repeat 1, Conc. 0.0391 μM): 168
- mean (FP signal, FigS5) (Repeat 1, Conc. 0.0781 μM): 122
- mean (FP signal, FigS5) (Repeat 1, Conc. 0.1563 μM): 88
- mean (FP signal, FigS5) (Repeat 1, Conc. 0.3125 μM): 67
- mean (FP signal, FigS5) (Repeat 1, Conc. 0.625 μM): 54.3
- mean (FP signal, FigS5) (Repeat 1, Conc. 1.25 μM): 49
- mean (FP signal, FigS5) (Repeat 1, Conc. 2.5 μM): 46.7
- mean (FP signal, FigS5) (Repeat 1, Conc. 5 μM): 44.3
- mean (FP signal, FigS5) (Repeat 1, Conc. 10 μM): 42.7
- mean (FP signal, FigS5) (Repeat 1, Conc. 20 μM): 44.3
- IC50 (Repeat 1, read-out: IC50(μM) Repeat 1): 0.0453 µM
- mean (FP signal, FigS5) (Repeat 2, Conc. 0.0002 μM): 302.3
- mean (FP signal, FigS5) (Repeat 2, Conc. 0.0005 μM): 304.7
- mean (FP signal, FigS5) (Repeat 2, Conc. 0.001 μM): 303
- mean (FP signal, FigS5) (Repeat 2, Conc. 0.002 μM): 302.7
- mean (FP signal, FigS5) (Repeat 2, Conc. 0.0039 μM): 295.7
- mean (FP signal, FigS5) (Repeat 2, Conc. 0.0078 μM): 286.7
- mean (FP signal, FigS5) (Repeat 2, Conc. 0.0156 μM): 253.7
- mean (FP signal, FigS5) (Repeat 2, Conc. 0.0313 μM): 190.3
- mean (FP signal, FigS5) (Repeat 2, Conc. 0.0625 μM): 134.3
- mean (FP signal, FigS5) (Repeat 2, Conc. 0.125 μM): 96.3
- mean (FP signal, FigS5) (Repeat 2, Conc. 0.25 μM): 73
- mean (FP signal, FigS5) (Repeat 2, Conc. 0.5 μM): 59
- mean (FP signal, FigS5) (Repeat 2, Conc. 1 μM): 51
- mean (FP signal, FigS5) (Repeat 2, Conc. 2 μM): 48
- IC50 (Repeat 2, read-out: IC50(μM) Repeat 2): 0.0412 µM
- mean (FP signal, FigS5) (Repeat 3, Conc. 0.006 μM): 307.3
- mean (FP signal, FigS5) (Repeat 3, Conc. 0.012 μM): 294
- mean (FP signal, FigS5) (Repeat 3, Conc. 0.024 μM): 259
- mean (FP signal, FigS5) (Repeat 3, Conc. 0.049 μM): 199.7
- mean (FP signal, FigS5) (Repeat 3, Conc. 0.098 μM): 140
- mean (FP signal, FigS5) (Repeat 3, Conc. 0.195 μM): 103.3
- mean (FP signal, FigS5) (Repeat 3, Conc. 0.391 μM): 81.3
- mean (FP signal, FigS5) (Repeat 3, Conc. 0.781 μM): 68
- mean (FP signal, FigS5) (Repeat 3, Conc. 1.563 μM): 63.7
- mean (FP signal, FigS5) (Repeat 3, Conc. 3.125 μM): 58.3
- mean (FP signal, FigS5) (Repeat 3, Conc. 6.25 μM): 58.7
- mean (FP signal, FigS5) (Repeat 3, Conc. 12.5 μM): 57.7
- mean (FP signal, FigS5) (Repeat 3, Conc. 25 μM): 54.3
- mean (FP signal, FigS5) (Repeat 3, Conc. 50 μM): 56.3
- IC50 (Repeat 3, read-out: IC50(μM) Repeat 3): 0.0379 µM
- IC50 (mean of 3 repeats, read-out: IC50(μM) mean): 0.0415 µM
